Results published in patent US11001615B2, “Mutated tau protein fragment and use thereof” (ADEL INC., priority 2016, dated 2021).
Square brackets hold non-standard residues; d marks the D form. Ends that are not written are not given here. pT = C[C@@H](OP(=O)(O)O)[C@H](N)C(=O)O

Legend:
[1] = system: Tau-P301L dementia mice; experiment: Water maze test; format: in vivo; conditions: 5th day, platform removed; ranking after K280-ac
Protocol: (§1) JNPL3 mice expressing Tau-P301L mutant gene were purchased from Taconic, and back-crossed with C57bl/6 mice for five generations in the experimental animal room of the Asan Institute for Life Sciences. Then, the mice were raised under a specific pathogen free (SPE) condition. For active immunization, the mice were administered, for six months starting from three months after birth at intervals of two weeks, two weeks, four weeks, four weeks, five weeks, four weeks, and one week in this order, the four modified tau protein fragments prepared in Preparation Example 1 together with keyhole limpet hemocyanin (KLH) as a carrier and an aluminum adjuvant. At this time, administration was carried out through intraperitoneal injection (IP injection). The dementia mice which were actively immunized by administration of the K280-ac fragment were designated as Tau-P301L-K280-ac.
An underwater maze test was performed to evaluate a learning and memory ability of the mice. […] Specifically, the underwater maze test took a total of 5 days. The mice were trained for 4 days in a state where a platform and a visual cue for the platform location are placed.
The learning was conducted by filling a swimming pool (1.4 m in diameter, 45 cm in depth) having a platform with water (29±0.5° C.) to a depth of about 26.5 cm, and then 1.5 L of whole milk powder was added to make water cloudy so that the mice can remember the platform with the cue only. Then, the mice were adapted to freely swim for 60 seconds and allowed to rest on the platform for 1 minute. The experiment was performed over a total of 12 times with 4 sets at three different starting positions. At the end of each test, 30 seconds of break time was given. At the end of one set, 30 to 45 minutes of break time was given.
After 4 days of learning, the test was performed on the 5th day. In the experiment for evaluation, the platform was not placed, and the number of staying in the area where the platform has been placed was measured in order to identify whether the mice visit well the platform location using the cue only. The test time was set for the mice to arrive at the location where the platform had been placed within one minute. If the mice fail to arrive at the platform location within one minute, the mice were removed out of the swimming pool.

[2] = system: Tau-P301L dementia mice; experiment: ELISA using plasma: antibody production against modified tau protein fragments; format: in vivo; conditions: ELISA using plasma after final administration; fragment with KLH and aluminum adjuvant, IP
Protocol: as §1
In order to identify whether antibodies against the four modified tau protein fragments prepared in Preparation Example 1 were produced, the respective modified tau protein fragments or the full-length tau protein was finally administered, and then ELISA was performed using plasma.

Glu391: protein fragment having the 381st to 391st amino acid sequence section of the tau protein in which the C-terminus of the 391st amino acid is truncated (NAKAKTDHGAE)
number of arrivals, ranking among fragments [1]: next highest increased number of arrivals
antibodies against the fragment produced [2]: well produced

pT231: protein fragment having the 226th to 236th amino acid sequence section of the tau protein in which the 231st amino acid is phosphorylated (VAVVR[pT]PPKSP)
number of arrivals, ranking among fragments [1]: lowest number of times to arrive at the platform
antibodies against the fragment produced [2]: well produced

VQIVYK-ac: protein fragment having the 303rd to 316th amino acid sequence section of the tau protein in which the 306th to 311th amino acids are acetylated (GGSVQIVYKPVDLS; also: residues 306-311 (VQIVYK) acetylated; listed as Homo sapiens)
number of arrivals, ranking among fragments [1]: next highest increased number of arrivals
antibodies against the fragment produced [2]: not well produced
